Source: patent US7101915B1, “P-terphenyl compounds” (Shionogi & Co., Ltd., priority 1996, dated 2006)
Converted amounts (≈) assume the structure as drawn. Marks after values point to notes of the source that are not given here. Each block holds one compound with its values, some of them ahead of it.

How the values were obtained:
[1] = test system: anti-OVA IgE antibody titer (PCA titer); assay: Suppressive effect on the IgE production against ovalbumin (OVA), PCA titer; assay type: in vivo, BALB/c mice; details: untreated group 9-12
Description: Experiment 4 Suppressive Effect on the IgE Production Against Ovalbumin (OVA)
BALB/c mice (female, 8-10 weeks old) and Wistar rats (female, 8-10 weeks old) which were bought from Japan SLC, Inc. (Shizuoka) were used.
BALB/c mice were immunized by an intraperitoneal administration of 0.2 ml suspension of 2 μg of ovalbumin (OVA) and 2 mg of aluminium hydroxide gel in physiological saline. After 10 days, blood was drawn from hearts, sera were separated and stocked at −40° C. till the measurement of an IgE antibody titer.
After the compound of the present invention was dissolved or suspended in N, N-dimethylacetoamide, the mixture was diluted 20 times with miglyol 812 neutral oil. The obtained solution was orally administered to mice at 0.1 ml per mouse. The administration was continued for 10 days from the immunizing day to the day before drawing blood. IPD-1151-T (a compound described in Jpn. Pharmacol. (1993) 61, 31–39) and a compound No. 36 (a compound 36 described in J. Med. Chem. (1997) 40: 395–407) were examined as controls by the same method.
4) Measurement of Anti-OVA IgE Antibody Titer (PCA Titer)
The samples 2-fold diluted with physiological saline were prepared from the obtained mouse serum and each 50 μl of the solution was intradermally injected to backs of Wistar rats which previously hair cut. After 24 hours, a passive cutaneous anaphylaxis reaction (PCA) was induced by an intravenous injection of 0.5 ml of physiological saline containing 1 mg of OVA and 5 mg of Evans' blue dye. After 30 minutes, the rats were sacrified and the highest dilution rate of the serum giving bluing with a diameter of more than 5 mm was recorded as the PCA titer. For example, when a serum is positive for the PCA reaction till […], the anti-OVA IgE antibody titer of the mouse is defined as 7.

[2] = test system: C3H/HeN mouse splenocytes stimulated with Concanavalin A (Con A); assay: Suppressive effect on mitogenic activity of mouse splenocytes in vitro, Con A as mitogen (MTT); assay type: cell-based; details: Con A 5 μg/ml as mitogen, 3 days
Description: (§1) Experiment 1 Suppressive Effect on a Mitogenic Activity of Mouse Splenocytes In Vitro
(§2) In 96-well microtiter plate 5×10^5 C3H/HeN mouse splenocytes suspended in 0.1 ml of 10% fetal bovine serum-fortified RPMI 1640 medium containing 2 mM of sodium bicarbonate, 50 units/ml of penicillin, 50 μg/ml of streptomycin and 5×10^−5 M of 2-mercaptoethanol were added. Then, 5 μg/ml of Concanavalin A (Con A) or 10 μg/ml of lipopolysaccharide (LPS) as a mitogen and the compound of a pre-determined concentration of the present invention were added to each well so that a final volume of each well reached 0.2 ml. Each compound of the present invention was dissolved in dimethylsulfoxide (DMSO) and diluted with the above RPMI 1640 medium to adjust the final concentration of 100 ng/ml or less. The splenocytes in the 96-well microtiter plate were cultivated at 37° C. for 3 days in an incubator keeping the humidity 100%, carbon dioxide 5% and air 95%. Then, 25 μl of 6 mg/ml MTT [3-(4,5-dimethylthiazol-2-yl)-2,5-diphenyltetrazolium bromide] (Sigma) was added to the each well and cultivated at 37° C. for 4 hours under the same conditions. After the cultivation, 50 μl of 0.02 N hydrochloric acid in 20% sodium dodecyl sulfate (SDS) was added to formazan generated and left at 37° C. for 24 hours for dissolving formazan. An absorption intensity (OD) of formazan generated in proportion to the number of living cells was measured with an immunoreader (InterMed) equipped with a 570 nm filter (The Journal of Immunological Method, 65, 55-63, 1983). The 50% inhibitory concentration of a cell proliferation (IC 50) was calculated from a correlation between the concentration of the compound of the present invention and the absorption intensity.

[3] = test system: BGG-specific IgE in a serum; assay: Suppressive effect on the antibody production against bovine γ globulin (BGG), sandwich ELISA; assay type: in vivo, BALB/c mice; details: 100 mg/kg p.o. every day, serum after 21 days
Description: Experiment 3 Suppressive Effect on the Antibody Production Against Bovine γ Globulin (BGG)
On an immunizing day and 7 days after, 50 μg of BGG was subcutaneously inoculated to backs of BALB/c mice (male, 6-8 weeks old) for inducing an immune reaction. After the compound of the present invention was dissolved or suspended in N, N-dimethylacetoamide, the mixture was diluted with miglyol 812 neutral oil. A proper volume of the compound was orally administered (p.o.) to mice every day from the next day of the immunizing. A two hundredth weight to body weight of miglyol was administered to mice in a control group. After 21 days, blood was drawn from each mouse and a serum was separated. BGG-specific IgE in a serum was measured by the sandwich ELISA method using a BGG-coating plate. The suppressive rate of IgE production was calculated from the dilution rate of the serum which has the same absorption intensity as that of the control group for judging the effect of the compound of the present invention.

[4] = test system: C3H/HeN mouse splenocytes stimulated with lipopolysaccharide (LPS); assay: Suppressive effect on mitogenic activity of mouse splenocytes in vitro, LPS as mitogen (MTT); assay type: cell-based; details: LPS 10 μg/ml as mitogen, 3 days
Description: as §1, §2

[5] = test system: mouse thymoma strain EL4 cells; assay: Anti-proliferative activity on EL4 cells (MTT); assay type: cell-based; details: 3 days
Description: Experiment 2 Anti-Proliferative Activity on EL4 Cells
In 96-well microtiter plate 4×10^4/0.1 ml of mouse thymoma strain EL4 cells were added and 0.1 ml of the compound of the present invention was added to the mixture so that the concentration was in the range of 0-5,000 ng/ml. After the cultivation for 3 days, the IC50 was calculated by the MTT method as described in Experiment 1.

[6] = test system: IL-4 production of mouse T cell strain EL-4 (TPA); assay: Suppressive effect on the cytokine production of mouse T cell strain EL-4: IL-4; assay type: cell-based; details: EL-4, TPA 10 ng/ml, 24 hours, ELISA
Description: (§3) Experiment 8 Suppressive Effect on the Cytokine Production of a Mouse T Cell Strain EL-4 In 48-well plate were added 2×10^5 mouse T cell strain EL-4 which were suspended in 0.2 ml of 1% fetal bovine serum-added RPMI 1640 medium (2 mM of sodium bicarbonate, 50 units/ml of penicillin, 50 μg/ml of streptomycin and 5×10^−5 M of 2-mercaptoethanol were added) and the compound of the present invention of a predetermined concentration. TPA was added as a cell stimulater at a final concentration of 10 ng/ml to adjust a final volume of each well to 0.4 ml. Each compound of the present invention was dissolved in DMSO and diluted with the above RPMI 1640 medium, and then for added at a final concentration of 100 ng/ml or less. The cells in the 48-well plate were cultivated in an incubator keeping the humidity 100%, carbon dioxide 5% and air 95% at 37° C. for 24 hours to collect a supernatant of each well. The amount of IL-2, IL-4 and IL-5 released in the medium of each well were measured with the ELISA kit (Amersham K. K.) to be taken as an index of the cytokine production of the cells. TPA free group (-TPA) was used as a control.

[7] = test system: IgG1 production of mouse spleen lymphocytes; assay: Suppressive effect on antibody production of mouse spleen lymphocytes: IgG1; assay type: cell-based, BALB/c (nu/nu) mice; details: LPS + IL-4, 10 days
Description: (§4) Experiment 6 Suppressive Effect on Antibody Production of Mouse Spleen Lymphocytes 1. Experimental Method 1) Animals
(§5) BALB/c (nu/nu) mice were bought from Japan SLC, Inc. (Shizuoka) and 7 weeks old-male mice were used.
(§6) RPMI medium (Nissui Pharmaceutical Co., Ltd.) containing 10% fetal bovine serum (HyClone Lab.) inactivated at 56° C. for 30 minutes, penicillin (100 units/ml) and streptomycin (100 μg/ml) (GIBCO) was used for experiments.
(§7) Each of the compounds was dissolved in dimethylsulfoxide (Nakaraitesk) at […] and diluted with the medium to adjust a final concentration to 0.1 μg/ml −10 μg/ml.
(§8) 4) Mouse Spleen Lymphocytes […]
(§9) In 96-well cultivating plate (Sumitomo Bakelite Company Limited) mouse spleen lymphocytes were inoculated 2×10^5 cells per well. […] After the cultivation for 10 days, the amount of the antibody in a supernatant was quantified by ELISA method.
(§10) 7) Quantification of the IgG1, IgG2a and IgM Antibodies
(§11) In 96-well plate 50 μl of 10 μg/ml Goat Anti-Mouse Ig (IgM+G+A, H+ L) (Southern Biotechnology, Birmingham) was added and the plate was coated at 4° C. overnight. […] After washing three times with PBST, 100 μl of culture supernatant which was diluted with PBS or 100 μl of an antibody standard solution (Mouse IgG1 standard, Mouse IgG2a standard, Mouse IgM standard, BETHYL Laboratories) of a pre-determined concentration was added and incubated for 1 hour. […]

[8] = test system: IL-5 production of mouse T cell strain EL-4 (TPA); assay: Suppressive effect on the cytokine production of mouse T cell strain EL-4: IL-5; assay type: cell-based; details: EL-4, TPA 10 ng/ml, 24 hours, ELISA
Description: as §3

[9] = test system: IL-2 production of mouse T cell strain EL-4 (TPA); assay: Suppressive effect on the cytokine production of mouse T cell strain EL-4: IL-2; assay type: cell-based; details: EL-4, TPA 10 ng/ml, 24 hours, ELISA
Description: as §3

[10] = test system: IgE production of mouse spleen lymphocytes (lipopolysaccharide, IL-4); assay: Suppressive effect on antibody production of mouse spleen lymphocytes: IgE; assay type: cell-based, BALB/c (nu/nu) mice; details: LPS + IL-4, 10 days
Description: as §4, §5, §6, §7
4) Mouse Spleen Lymphocytes
A spleen of mouse was taken out and put in a cultivating schale which was filled with Hanks' solution. The spleen was crushed and the cells were pushed out from the organ and filtered through a metal mesh (200 mesh). After the collected cell suspension was washed by centrifugation with sterile Hanks' solution (Nissui Pharmaceutical Co., Ltd.), sterile distilled water was added. […]
as §9
6) Quantification of the IgE Antibody
A commercial mouse IgE EIA kit (Yamasa Shoyu Co., Ltd.) was used for the quantification of the IgE. […]

[11] = test system: IgG2a production of mouse spleen lymphocytes; assay: Suppressive effect on antibody production of mouse spleen lymphocytes: IgG2a; assay type: cell-based, BALB/c (nu/nu) mice; details: LPS + IL-4, 10 days
Description: as §4, §5, §6, §7, §8, §9, §10, §11

[12] = test system: IgM production of mouse spleen lymphocytes; assay: Suppressive effect on antibody production of mouse spleen lymphocytes: IgM; assay type: cell-based, BALB/c (nu/nu) mice; details: LPS + IL-4, 10 days
Description: as §4, §5, §6, §7, §8, §9, §10, §11

SMILES: CCOCC(O)COc1ccc(NC(=O)CC[S+](C)C)cc1.Cc1ccc(S(=O)(=O)[O-])cc1 (centres unmarked) [IPD-1151-T, Suplatast Tosilate, reference compound]
PCA Titer ([1]; 50 mg/kg orally for 10 days): 9.8

SMILES: O=C(Cc1ccc(Oc2ccc3cc(OCc4ccccc4)ccc3c2)cc1)Nc1ccccc1C(=O)O [No.36]
PCA Titer ([1]; 10 mg/kg orally for 10 days): 10.4

SMILES: COc1cc(-c2ccc(OCC=C(C)C)c(F)c2)c(OC)cc1-c1ccc(O)cc1 [Compound I-73]
IC50 IL-4 [6]: 20 ng/mL (≈ 0.049 µM) | IC50 IgG1 [7]: 2600 ng/mL | IC50 IL-5 [8]: 15 ng/mL (≈ 0.0367 µM) | IC50 IL-2 [9]: 500 ng/mL (≈ 1.22 µM) | IC50 IgE [10]: 0.044 ng/mL | IC50 IgG2a [11]: 4900 ng/mL | IC50 IgM [12]: 4200 ng/mL

SMILES: COc1cc(-c2ccc(NCC=C(C)C)c(F)c2)c(OC)cc1-c1ccc(N(C)C)cc1 [Compound I-484]
ConA IC50 [2]: 14.7 ng/mL | LPS IC50 [4]: 32.2 ng/mL | EL-4 IC50 [5]: 91.4 ng/mL | PCA Titer ([1]; 40 mg/kg orally for 10 days): <0

Continued, in another order:

melting point: 100 to 102 °C
SMILES: CC(C)=CCNc1ccc(-c2cc(C)c(-c3ccc(N(C)C)cc3)cc2C)cc1F [Compound I-925]
PCA Titer ([1]; 40 mg/kg orally for 10 days): 1**

EL-4 IC50 [5]: 5.0 ng/mL
SMILES: CC(C)=CCOc1ccc(-c2cc(C)c(-c3ccc(O)cc3)cc2C)cc1O [Compound I-525]
ConA IC50 [2]: 0.76 ng/mL | Suppressive rate of antigen-specific IgE [3]: >95% | LPS IC50 [4]: 1.11 ng/mL

melting point: 166 to 168 °C | IC50 ([5]; Mus musculus, 72 h, read-out: EL-4 IC50): 4.37 ng/mL (≈ 0.00791 µM)
SMILES: COc1cc(-c2ccc(O)cc2)c(OC)c(O)c1-c1ccc(OCC=C(Br)Br)c(O)c1 [Compound I-931]
IC50 ([2]; Mus musculus, Splenocyte, 72 h, read-out: ConA IC50): 2.93 ng/mL (≈ 0.00531 µM) | IC50 ([4]; Mus musculus, Splenocyte, 72 h): 5.76 ng/mL (≈ 0.0104 µM)
